Like-named read-outs stand apart in the source and are kept apart here. Values belong to the compound of their own block, whether it stands above or below them.
Experiments:
[1] = biological target: T1, MCR-5 (Homo sapiens, UniProt P33032); assay: cAMP assay for melanocortin receptors, HEK 293 cells expressing MCR-5; format: cell-based; details: read-out: MC-5 EC50 (cAMP)
T1 construct: expressed in transfected cells; host or cells: HEK 293
Procedure: HEK 293 cells expressing MCR-1, MCR-3, MCR-4 and MCR-5 were used (see Example II). Cells were plated at 20,000 cells per well in a 96-well plate coated with collagen. The next day, cells were pretreated with 75 μl of 0.4 mM 3-isobutyl-1-methylxanthine (IBMX) in low serum medium containing DMEM, 25 mM HEPES, non-essential amino acids, vitamins, 100 units/ml penicillin, 100 μg/ml streptomycin and 0.1% COSMIC CALF SERUM. IBMX is an inhibitor of cAMP phosphodiesterase. The pretreatment was carried out for 10 min at 37° C.
Following pretreatment, 25 μl of diluted isoquinoline compound was added to the wells, and cells were incubated for 15 min at 37° C. Cells were lysed by adding 25 μl saponin lysis buffer and incubating 2 to 5 min. Plates were covered and stored at −20° C.
cAMP concentration was determined by ELISA. Briefly, 96 well ELISA plates were coated with goat anti-cAMP antibody in PBS for 12 to 72 hr at 4° C. 50 μl of sample was mixed with 50 μl of cAMP ELISA buffer containing 1% bovine serum albumin, 10% heat-inactivated donor horse serum, 1% normal mouse serum and 0.05% TWEEN-20 in PBS, and the diluted sample was added to the coated ELISA plate. Standards of known concentrations of cAMP were added to separate wells. 25 μl of 16 ng/ml cAMP-conjugated horse radish peroxidase (HRP) (cAMP-HRP) was added to each well, and the plates were […] at room temperature. Plates were washed and the binding of cAMP-HRP was detected with 3,3′,5,5′-tetramethylbenzidine (TMB) and hydrogen peroxide using standard immunoassay procedures.
Various isoquinoline compounds were tested for their ability to activate MC receptor by measuring cAMP as described in Example III.

[2] = Body weight and food consumption after i.p. administration; format: in vivo, Sprague-Dawley rats; details: for reducing body weight and food consumption: rat, in vivo; for body weight relative to control / food consumption / weight gain: rats, 5 mg/kg i.p.; for body weight relative to control: at 9 hours as well as 18 hours, FIG. 7; for food consumption / weight gain: 18 hours after injection, FIG. 6
Excerpt: Adult male Sprague-Dawley rats (175-225 g) were used to assess the effect of isoquinoline compounds on food uptake and body weight. Baseline body weight and food consumption measurements were taken for 3 days prior to start of the study (Day 0). On Day −1, the food was taken away from the animals at 5:00 PM. The next morning (Day 0), body weight measurements were taken, and the animals were divided into treatment groups with 6 animals in each group. The treatment groups were saline control, HP 228 positive control and test isoquinoline compounds. Saline was administered i.p. at 1 ml/kg. HP 228 and test isoquinoline compounds were administered i.p. at 5 mg/kg. The injections were initiated at 2:00 PM on Day 0.
Body weight and food consumption measurements were taken at 9 hr (Day 0; 11:00 PM) and at 18 hr (Day 1, 8:00 AM) after injection. At the end of the study, all evaluated parameters (9 and 18 hour body weight and food consumption) were analyzed by standard statistical methods. Significance (P<0.05) was determined by one-way ANOVA, ANOVA for repeated measures, or Student's t-test.
The level of reduction was similar to that seen with HP 228.

[3] = biological target: T2, MCR-4 (Homo sapiens, UniProt P32245); assay: Melanocortin receptor binding assay, competition with 125I-HP 467, HEK 293 cells expressing hMCR-4; details: read-out: MC-4 IC50
T2 construct: expressed in transfected cells; host or cells: HEK 293
Summary of the method: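 Intact-cell competition binding, 2.5 hr at 37 °C, in PBS/10% calf serum/1 mM CaCl2; hMCR-4 cells at 4×10^3 per tube, hMCR-1 cells at 2×10^4 per tube. Filtration on BSA/CaCl2-soaked GF/B, cold 50 mM Tris pH 7.4 washes, scintillation count.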

[4] = competition with 125I-HP 467, HEK 293 cells expressing MCR-4
[5] = TRG 2408 and TRG 2409 libraries, inhibition of 125I-HP 467 binding

T2 sequence (P32245 whole entry): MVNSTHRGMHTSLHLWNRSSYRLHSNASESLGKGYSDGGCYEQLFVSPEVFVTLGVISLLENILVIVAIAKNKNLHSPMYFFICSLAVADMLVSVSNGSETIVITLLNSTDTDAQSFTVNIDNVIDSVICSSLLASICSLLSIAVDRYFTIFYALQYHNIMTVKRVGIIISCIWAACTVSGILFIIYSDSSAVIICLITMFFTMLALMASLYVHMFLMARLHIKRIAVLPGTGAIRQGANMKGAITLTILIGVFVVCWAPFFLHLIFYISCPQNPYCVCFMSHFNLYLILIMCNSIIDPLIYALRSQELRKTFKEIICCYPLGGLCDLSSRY
T1 sequence (P33032 whole entry): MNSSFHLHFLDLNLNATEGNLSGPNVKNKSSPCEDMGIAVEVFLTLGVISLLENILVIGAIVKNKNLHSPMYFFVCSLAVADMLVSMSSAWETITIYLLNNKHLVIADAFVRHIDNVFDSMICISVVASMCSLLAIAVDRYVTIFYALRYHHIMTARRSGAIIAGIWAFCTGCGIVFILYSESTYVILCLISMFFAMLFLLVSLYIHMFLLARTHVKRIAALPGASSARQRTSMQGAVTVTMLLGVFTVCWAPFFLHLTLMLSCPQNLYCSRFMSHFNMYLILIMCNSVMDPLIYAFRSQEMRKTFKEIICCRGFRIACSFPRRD

Compound: CNC(CN)CCCCN1Cc2ccccc2C(CNC2CCCCC2)C1c1ccc2cccc(O)c2n1 (centres unmarked) [TRG 2405-262]
- EC50 [1]: > 50 µM

Compound: CNC(CN)CCCCN1Cc2ccccc2C(CNC2CCCCC2)C1c1ccc(Br)cc1 (centres unmarked) [TRG 2405-242]
- EC50 [1]: > 50 µM

Compound: CNC(CN)CCCCN1Cc2ccccc2C(CNC2CCCCC2)C1c1ccc(Oc2ccccc2)cc1 (centres unmarked) [TRG 2405-252]
- EC50 [1]: > 50 µM
- reducing body weight and food consumption [2]: particularly effective at reducing body weight and food consumption
- body weight relative to control [2]: significant differences

Compound: CNC(CN)CCCCN1Cc2ccccc2C(CNC2CCCCC2)C1c1ccc(Cl)cc1Cl (centres unmarked) [TRG 2405-190]
- reducing body weight and food consumption [2]: particularly effective at reducing body weight and food consumption
- food consumption [2]: significant decrease
- weight gain [2]: significant decrease

Compound: CNC(CN)CN1Cc2ccccc2C(CNC2CCCCC2)C1c1ccc(O)cc1 (centres unmarked) [TRG 2405-156]
- EC50 [1]: > 50 µM
- IC50 ([3]; TRG 2405 section, inhibition of binding of 125I-HP 467, HEK 293 cells expressing MCR-4): 20.6 µM

Compound: CNC(CN)CCCCN1Cc2ccccc2C(CNC2CCCCC2)C1c1ccc(-c2ccccc2)cc1 (centres unmarked) [TRG 2405-241]
- EC50 [1]: > 50 µM
- reducing body weight and food consumption [2]: particularly effective at reducing body weight and food consumption
- food consumption [2]: significant decrease
- weight gain [2]: significant decrease

Compound: CNC(CN)CCCCN1Cc2ccccc2C(CNC2CCCCC2)C1c1ccc(C(F)(F)F)cc1 (centres unmarked) [TRG 2405-238]
- EC50 [1]: > 50 µM

Compound: CCNc1ccc(C2C(CNC3CCCCC3)c3ccccc3CN2CCCCC(CN)NC)cc1 (centres unmarked) [TRG 2405-239]
- EC50 [1]: > 50 µM

Compound: CNC(CN)CCCCN1Cc2ccccc2C(CNC2CCCCC2)C1c1ccc(O)cc1 (centres unmarked) [TRG 2405-246]
- EC50 [1]: > 50 µM

Compound: CCCOc1ccc(C2C(CNC3CCCCC3)c3ccccc3CN2CCCCC(CN)NC)cc1 (centres unmarked) [TRG 2405-253]
- EC50 [1]: > 50 µM
- reducing body weight and food consumption [2]: particularly effective at reducing body weight and food consumption
- body weight relative to control [2]: significant differences

Other lines, results leading:

- IC50 ([3]; TRG 2406 and TRG 2407 libraries, inhibition of binding of 125I-HP 467): 0.11 µM
Compound: CNC(CN)CCCCN1Cc2ccccc2C(CN)C1c1ccc(Cl)cc1Cl (centres unmarked) [TRG 2407-39]

- IC50 [3, 4]: 15.1 µM
Compound: CCCCNc1ccc(C2C(CNC3CCCCC3)c3ccccc3CN2CCCCC(CN)NC)cc1 (centres unmarked) [TRG 2409-14]

- IC50 [3, 5]: 45.6 µM
Compound: CCNc1ccc(C2C(CNC3CCCCC3)c3ccccc3CN2CCCCC(CN)NC)cc1 (centres unmarked) [TRG 2408-30]

- IC50 [3, 4]: 10.7 µM
Compound: CCCCNc1ccc(C2C(CNCc3ccccc3O)c3ccccc3CN2CCCCC(CN)NC)cc1 (centres unmarked) [TRG 2409-2]

- IC50 [3, 5]: 2.61 µM
Compound: CCNc1ccc(C2C(CNC3CCCCC3)c3ccccc3CN2CCCC(CN)NCCc2ccccc2)cc1 (centres unmarked) [TRG 2408-62]

- IC50 [3, 5]: 6.02 µM
Compound: CCNc1ccc(C2C(CNCc3ccccc3O)c3ccccc3CN2CCCC(CN)NCCc2ccccc2)cc1 (centres unmarked) [TRG 2408-57]
